Measured values published in patent US20020142982A1, “Method for regulating angiogenesis” (priority 1999, published 2002).

How the values were obtained:
Assay type in all cases: cell-based, human
[1] = test system: HUVEC; test: Adherens junction assembly in HUVEC, immunofluorescence of VE-cadherin and catenins; settings: for VE-cadherin, α-, β- and γ-catenin localization at cell-cell junctions: 500 nM, 1 hour
Description: To investigate whether SPP regulates the formation of adherens junction in endothelial cells, HUVEC were plated at a density of 2×10^4 cells/em^2 for 2 days, starved in lipid-depleted medium and treated without (cont) or with SPP (500 nM for 1 hours). For these experiments, after treatment cells were washed with ice-cold PBS, fixed with 4% formaldehyde at room temperature or methanol at −20° C. for 15 minutes. In the case of formaldehyde fixation, cells were permeabilized with 0.2% TX-100. After washing with PBS, cells were stained with antibodies as follows: VE-cadherin ([…], Transduction Labs, San Diego, Calif.; 1 μg/mL, Santa Cruz Biotechnology, Inc., Santa Cruz, Calif.), α-catenin ([…], Transduction Labs), β-catenin (1.25 μg/mL, Transduction Labs; 0.4 μg/mL, Santa Cruz), γ-catenin ([…], Transduction Labs). The primary antibody staining was visualized with FITC-conjugated goat anti-rabbit or TRITC conjugated sheep anti-mouse (1:1000, Cappel, now owned by ICN, Costa Mesa, Calif.) for 30 minutes at room temperature, and imaged on a Zeiss Axiovert 100TV fluorescence microscope. […]

[2] = test system: HUVEC; test: SPP-induced intracellular calcium in HUVEC (Indo-1 fluorescence); settings: PTx 500 ng/mL pretreatment 16 hours
Description: Functional assays were used to test for the presence of Gi-coupled and Gq-coupled SPP receptors in HUVEC. First, intracellular calcium levels were measured in response to SPP. For these experiments, cells were grown on 100-mm tissue culture dishes and loaded with the fluorescent calcium-sensitive dye, Indo-1 acetoxymethyl ester (Indo-1/AM, 5 μg/mL; Molecular Probes, Inc., Eugene, Oreg.), for 30 min at 37° C. Cells were then washed with medium M199, briefly trypsinized (0.05% porcine trypsin/0.02% EDTA in HBSS (JRH Biosciences, Lenexa, Kans.), and the trypsin activity was immediately neutralized with soybean trypsin inhibitor (5 μg/mL, Sigma Chemical Co., St. Louis, Mo.). Following centrifugation (250 g×5 min), cells were resuspended in M199 medium to a density of 2.7×10^5 cells/mL. Cells were then stimulated with different doses of SPP. Some cells were pretreated with the Gi inhibitor pertussis toxin (PTx, 500 ng-/mL) for 16 hours. Calcium ion concentration was then quantified by measuring changes in indo-1 fluorescence in 2 mL of cell suspension by a Hitachi F-2000 fluorescence Spectrophotometer with constant stirring. Fluorescence emission was monitored at 400 and 475 nm with excitation at 352 nm. [Ca^+2]1 was calculated as described in Volpi and Berlin, J. Cell Biol., Vol. 107, 2533-39 (1988).

[3] = test system: ERK-2; test: ERK-2 immune complex kinase assay in HUVEC; settings: PTx 200 ng/mL or PD98059 10 μM, 2 hours pretreatment
Description: As a second functional assay, ERK-2 kinase activity was measured in response to SPP treatment. For these experiments, endothelial cells were starved for 19 hours, and then stimulated with SPP for 10 minutes. Cells were then lysed, and ERK-2 kinase activity was measured by an immune complex kinase assay using myelin basic protein (MBP) as substrate. Some cells were pretreated with pertussis toxin (PTx) at 200 ng/mL, or PD98059 at 10 μM for 2 hours prior to stimulation.

[4] = test system: HUVEC; test: HUVEC morphogenesis on MATRIGEL (in vitro angiogenesis, tubular length); settings: for HUVEC morphogenesis on MATRIGEL (tubular length): 12-18 hours, SPM and C1P 1 μM
Description: FIG. 42 is microscope images showing morphogenesis of HUVEC cells plated on Matrigel. HUVEC cells were transduced with 50 MOI of indicated viruses; a,b=none, c=β-gal, d=wild-type EDG-1, e=T236AEDG-1, f=T236AEDG-1+wild-type Akt. Total viral load in c-f is normalized. In vitro angiogenesis assay on Matrigel was conducted in the presence (b to f) or not (a) of 100 nM S1P. The numbers are mean±s.e.m of total tubular length per microscopic field (n=2). Scale bar=170 μm.
To investigate SPP induction of angiogenesis, 200 μL aliquots of thawed MATRIGEL were polymerized in 24-well tissue culture plates. HUVEC were trypsinized, resuspended in plain M199 medium containing soybean trypsin inhibitor (10 mg/mL, Sigma Chemical Co., St. Louis, Mo.). Following centrifugation (250 g; 5 minutes), cells were resuspended in plain M199 supplemented with 2% CFBS at a density of 1.5×10^5 cells/mL. 200 μL of cell suspension were seeded on these gels in the presence or absence of SPP (Biomol), for 12-18 hours. Cells were rinsed two times with phosphate buffered saline (PBS), and then fixed with 4% formaldehyde. Results were recorded photographically using a Zeiss Axiovert 100TV microscope equipped with a 5× objective. Five random fields of each well were photographed, and total tubular length was quantified by image analysis (Kinsella, J. et al., Experimental Cell Research 199: 56-62 (1992); Gamble J., et al., J. Cell Biol. 121: 931-943 (1993)).
Scale bar represents 52 microns. These quantitative data are the mean±standard deviation of duplicate determinations from a representative experiment which was repeated at least three times. SPP concentrations (in μM) are indicated in parentheses. For SPP +PTx, HUVEC were pretreated with PTx (200 ng/mL) for 2 hours, trypsinized, plated onto MATRIGEL, then stimulated with 500 nM SPP in the presence of PTx (20 ng/mL) for 16-18 hours. For SPP+C3, HUVEC were pretreated with C3 exoenzyme (10 μg/mL) for 48 hours, trypsinized, plated onto MATRIGEL, stimulated with 500 nM SPP together with the same concentration of C3 exotoxin. SPM, sphingomyelin (1 μM). For C1P, C8-ceramide-1-phosphate (1 μM). The maximal effects achieved by 1 μM SPP was indistinguishable from the positive control medium which contained FBS.
In these experiments, HUVEC were plated onto MATRIGEL in the presence of the same amount of corresponding antibodies without or with 500 nM SPP. 16 hours later, total length of HUVEC networks formed on MATRIGEL was quantified.

[5] = test system: HUVEC; test: C2-Ceramide-induced apoptosis of HUVEC (DNA fragmentation); settings: pretreatment 2 hours; PD98059 10 μM
Description: The ability of SPP to protect endothelial cells from apoptosis was investigated. In these experiments, HUVEC were treated with 1 μM C2-Ceramide for 12 hours and apoptosis was measured in the following manner: HUVEC were plated onto coverslips and allowed to grow for 2 days. Cells were washed three times with medium M199, and treated with 1 μM C2-Ceramide (Biomol) for 12 hours in the presence or absence of SPP. Subsequently, cells were fixed with methanol at −20° C. for 5 minutes, air dried, and stained with Hoechst 33258 dye (0.5 μg/mL for 5 minutes; Sigma Chemical Co., St. Louis, Mo.). The apoptotic nuclei were identified with the aid of a Zeiss Axiovert 100TB fluorescence microscope. For quantification, HUVEC were labeled with ^3Hmethyl-thymidine (5 μCi/mL, NEN DuPont) for 24 hours. Following three washes with medium M199, cells were treated with C2-Ceramide as above. 12 hours later, cells were extracted with lysis buffer (5 mM tris, pH 7.4, 2 mM EDTA, 0.5% TX-100) at 4° C. for 20 minutes. After centrifugation (15,000 g, 20 minutes), the radioactivity present in the supernatant and sediment was measured by liquid scintillation counting. The percentage of DNA fragmentation was determined as ((supernatant cpm)/(supernatant cpm+sediment cpm))×100%.
SPP+PTx and SPP+PD98059 (10 μM), respectively, for 2 hours prior to the addition of C2-Ceramide (1 μM) and SPP (10 to 500 nM). Data are mean±standard deviation of triplicate determinations from a representative experiment which was repeated two times. […] A similar effect was also seen when growth factor withdrawal, and 15-deoxy Δ^12,14 prostaglandin J2 were used as apoptotic stimuli (data not shown). […] Therefore SPP induced endothelial cell survival requires the Gi/ERK signaling pathway.

Compound | VE-cadherin, α-, β- and γ-catenin localization at cell-cell junctions [1] | inhibition of SPP-induced ERK activity [3] | inhibition of the cytoprotective effect of SPP [5] | HUVEC morphogenesis on MATRIGEL (tubular length) [4] | other results
ceramide | had no effect |  |  |  | 
pertussis toxin |  | inhibited completely | completely inhibited |  | inhibition of SPP-induced calcium response [2]: approximately 90%; inhibition of SPP-induced β-catenin translocation ([1]; HUVEC, SPP treatment): did not inhibit; inhibition of SPP-induced morphogenesis ([4]; 500 nM SPP, MATRIGEL): potently inhibited
sphingomyelin | had no effect |  |  | inactive | 
CCCCCCCCCCCCC/C=C/[C@@H](O)[C@@H](N)CO [sphingosine] | had no effect |  |  |  | 
COc1cccc(-c2cc(=O)c3ccccc3o2)c1N [PD98059] |  | inhibited completely | completely inhibited |  | 
CCCCCCCCCCCCC/C=C/[C@@H](O)[C@H](COP(=O)(O)O)NC(=O)CCCCCCC [ceramide-1-phosphate, C8-ceramide-1-phosphate] | had no effect |  |  | inactive | 
